Assay results taken from PubChem BioAssay AID248 (DTP/NCI, 2004).
Values joined by “and” are separate entries in the source; they are usually repeats but may differ in a detail not shown here. Equal entries are not always repeated. Toxic doses and inconclusive results are not listed.

System: L1210 leukemia ip in BDF1 mice, survival T/C
Experiment: NCI In Vivo Anticancer Drug Screen. Data for tumor model L1210 Leukemia (intraperitoneal) in B6D2F1 (BDF1) mice
Details: endpoint: mean survival time, higher = longer survival
Method in brief: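 Ratio derived from survival: compound-dosed mice over vehicle-dosed mice, all bearing a transplantable tumor.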

[1] = dose: 100.0 mg/kg/injection, schedule: Q04DX003 (ip), vehicle: Klucel (hydroxypropylcellulose) (HPC)
[2] = dose: 200.0 mg/kg/injection, schedule: Q04DX003 (ip), vehicle: Klucel (hydroxypropylcellulose) (HPC)
[3] = dose: 400.0 mg/kg/injection, schedule: Q04DX003 (ip), vehicle: Klucel (hydroxypropylcellulose) (HPC)
[4] = dose: 12.5 mg/kg/injection, schedule: Q04DX003 (ip), vehicle: saline
[5] = dose: 25.0 mg/kg/injection, schedule: Q04DX003 (ip), vehicle: saline
[6] = dose: 100.0 mg/kg/injection, schedule: Q01DX001 (ip), vehicle: saline
[7] = dose: 100.0 mg/kg/injection, schedule: Q01DX009 (ip), vehicle: saline
[8] = dose: 200.0 mg/kg/injection, schedule: Q01DX009 (ip), vehicle: saline
[9] = dose: 100.0 mg/kg/injection, schedule: Q01DX001 (ip), vehicle: carboxymethylcellulose (CMC)
[10] = dose: 200.0 mg/kg/injection, schedule: Q01DX001 (ip), vehicle: carboxymethylcellulose (CMC)
[11] = dose: 400.0 mg/kg/injection, schedule: Q01DX001 (ip), vehicle: carboxymethylcellulose (CMC)

With `O=C(Nc1cccc(C(F)(F)F)c1)c1cc(C(O)C2CCCCN2)c2cccc(C(F)(F)F)c2n1` (stereo not given) the T/C (dose: 100.0 mg/kg/injection, schedule: Q01DX009 (sc), vehicle: olive oil, sesame oil, peanut oil) was 105 % of control, the T/C (dose: 100.0 mg/kg/injection, schedule: Q04DX003 (sc), vehicle: olive oil, sesame oil, peanut oil) was 102 % of control and the T/C (dose: 200.0 mg/kg/injection, schedule: Q01DX009 (sc), vehicle: olive oil, sesame oil, peanut oil) was 97 % of control. For the same molecule, the T/C (dose: 200.0 mg/kg/injection, schedule: Q04DX003 (sc), vehicle: olive oil, sesame oil, peanut oil) was 97 % of control, the T/C (dose: 400.0 mg/kg/injection, schedule: Q01DX009 (sc), vehicle: olive oil, sesame oil, peanut oil) was 108 % of control and the T/C (dose: 400.0 mg/kg/injection, schedule: Q04DX003 (sc), vehicle: olive oil, sesame oil, peanut oil) was 97 % of control.

`CC12CCC(=O)C=C1CCC1C2C(O)CC2(C)C1CCC2(O)C(=O)CSc1ccc(N(CCCl)CCCl)cc1` (stereo not given) was tested, and the T/C (dose: 100.0 mg/kg/injection, schedule: Q01DX001 (sc), vehicle: steriod suspending solution) was 92 % of control, the T/C (dose: 200.0 mg/kg/injection, schedule: Q01DX001 (sc), vehicle: steriod suspending solution) was 100 % of control and the T/C (dose: 400.0 mg/kg/injection, schedule: Q01DX001 (sc), vehicle: steriod suspending solution) was 103 % of control.

With `Fc1ccc(NC(=S)N/N=C\c2ccc(Cl)cc2Cl)cc1` the T/C (dose: 60.0 mg/kg/injection, schedule: Q01DX Z (oral), vehicle: methylcellulose (MC)) was 103 % of control, the T/C (dose: 120.0 mg/kg/injection, schedule: Q01DX Z (oral), vehicle: methylcellulose (MC)) was 89 % of control and the T/C (dose: 240.0 mg/kg/injection, schedule: Q01DX Z (ip), vehicle: methylcellulose (MC)) was 89 % of control. The T/C (dose: 240.0 mg/kg/injection, schedule: Q01DX Z (oral), vehicle: methylcellulose (MC)) was 93 % of control and the T/C (dose: 480.0 mg/kg/injection, schedule: Q01DX Z (oral), vehicle: methylcellulose (MC)) was 95 % of control.

`O=S(=O)(CBr)CC(Cl)c1ccccc1` (stereo not given) was tested, and the T/C (dose: 100.0 mg/kg/injection, schedule: Q04DX002 (ip), vehicle: Klucel (hydroxypropylcellulose) (HPC)) was 100 % of control, the T/C (dose: 200.0 mg/kg/injection, schedule: Q04DX002 (ip), vehicle: Klucel (hydroxypropylcellulose) (HPC)) was 106 % of control and the T/C (dose: 400.0 mg/kg/injection, schedule: Q04DX002 (ip), vehicle: Klucel (hydroxypropylcellulose) (HPC)) was 100 % of control.

`C[N+](C)(C)c1ccc(NC(=O)c2ccc(C(=O)Nc3ccc([N+](C)(C)C)cc3)cc2)cc1` was tested, and the T/C (dose: 0.5 mg/kg/injection, schedule: Q01DX Z (ip), vehicle: saline) was 93 % of control, the T/C (dose: 1.0 mg/kg/injection, schedule: Q01DX Z (ip), vehicle: saline) was 102 % of control and the T/C (dose: 2.0 mg/kg/injection, schedule: Q01DX Z (ip), vehicle: saline) was 97 % of control.

`OC(c1cc(Nc2ccc(Cl)cc2)nc2ccccc12)C1CCCCN1` (stereo not given) was tested, and the T/C [1] was 95 % of control and the T/C [2] was 101 % of control.

For `C#CCOC(=O)Nc1cccc(Cl)c1`, the T/C (dose: 100.0 mg/kg/injection, schedule: Q01DX009 (ip), vehicle: Klucel (hydroxypropylcellulose) (HPC)) was 95 % of control, the T/C [1] was 97 % of control and the T/C (dose: 200.0 mg/kg/injection, schedule: Q01DX009 (ip), vehicle: Klucel (hydroxypropylcellulose) (HPC)) was 97 % of control. The T/C [2] was 106 % of control, the T/C (dose: 400.0 mg/kg/injection, schedule: Q01DX009 (ip), vehicle: Klucel (hydroxypropylcellulose) (HPC)) was 95 % of control and the T/C [3] was 90 % of control.

With `CC1(C)CC(N=Cc2ccccc2O)CC(C)(C)N1O.CC1(C)CC(N=Cc2ccccc2O)CC(C)(C)N1O.[Cu]` the T/C [4] was 89 % of control, the T/C [5] was 101 % of control and the T/C (dose: 50.0 mg/kg/injection, schedule: Q04DX003 (ip), vehicle: saline) was 101 % of control.

With `NC(=O)NNC1=CC(=O)CCO1` the T/C [6] was 107 % of control, the T/C (dose: 200.0 mg/kg/injection, schedule: Q01DX001 (ip), vehicle: saline) was 106 % of control and the T/C (dose: 400.0 mg/kg/injection, schedule: Q01DX001 (ip), vehicle: saline) was 104 % of control.

With `O=C(CCN1CC1)Oc1ccc(Cl)cc1` the T/C (dose: 100.0 mg/kg/injection, schedule: Q01DX001 (ip), vehicle: saline with Tween-80) was 97 % of control, the T/C (dose: 200.0 mg/kg/injection, schedule: Q01DX001 (ip), vehicle: saline with Tween-80) was 95 % of control and the T/C (dose: 400.0 mg/kg/injection, schedule: Q01DX001 (ip), vehicle: saline with Tween-80) was 95 % of control.

`Cc1cccc(N=Cc2ccc3c(c2)OCO3)c1` was tested, and the T/C (dose: 50.0 mg/kg/injection, schedule: Q01DX009 (ip), vehicle: saline) was 94 % of control, the T/C [7] was 94 % of control and the T/C [8] was 94 % of control.

In the case of `Cc1ccc2c(c1)CN(Cc1ccccc1)CO2`, the T/C (dose: 75.0 mg/kg/injection, schedule: Q01DX009 (ip), vehicle: saline) is reported as 89 % of control, the T/C (dose: 150.0 mg/kg/injection, schedule: Q01DX009 (ip), vehicle: saline) is reported as 94 % of control and the T/C [2] is reported as 103 % of control. For the same molecule, the T/C (dose: 300.0 mg/kg/injection, schedule: Q01DX009 (ip), vehicle: saline) was 102 % of control and the T/C [3] was 97 % of control.

For `CCCCN(C(=O)OCC)P(=O)(OCC)OCC`, the T/C [7] was 95 % of control and the T/C [8] was 109 % of control.

For `NC(=O)c1ccccc1NC(=O)Nc1ccc(F)cc1`, the T/C [9] was 104 % of control, the T/C (dose: 100.0 mg/kg/injection, schedule: Q01DX009 (ip), vehicle: carboxymethylcellulose (CMC)) was 102 % of control and 105 % of control and the T/C (dose: 100.0 mg/kg/injection, schedule: Q04DX002 (ip), vehicle: carboxymethylcellulose (CMC)) was 100 % of control and 101 % of control. The T/C (dose: 100.0 mg/kg/injection, schedule: Q04DX003 (ip), vehicle: carboxymethylcellulose (CMC)) was 95 % of control, the T/C [10] was 101 % of control and the T/C (dose: 200.0 mg/kg/injection, schedule: Q01DX009 (ip), vehicle: carboxymethylcellulose (CMC)) was 98 % of control and 105 % of control. The T/C (dose: 200.0 mg/kg/injection, schedule: Q04DX002 (ip), vehicle: carboxymethylcellulose (CMC)) was 101 % of control and 107 % of control, the T/C (dose: 200.0 mg/kg/injection, schedule: Q04DX003 (ip), vehicle: carboxymethylcellulose (CMC)) was 102 % of control and the T/C [11] was 93 % of control. For the same molecule, the T/C (dose: 400.0 mg/kg/injection, schedule: Q01DX009 (ip), vehicle: carboxymethylcellulose (CMC)) was 94 % of control and 102 % of control, the T/C (dose: 400.0 mg/kg/injection, schedule: Q04DX002 (ip), vehicle: carboxymethylcellulose (CMC)) was 93 % of control and 96 % of control and the T/C (dose: 400.0 mg/kg/injection, schedule: Q04DX003 (ip), vehicle: carboxymethylcellulose (CMC)) was 91 % of control.

`CCCCCCCc1ccc(N=Cc2ccc(OCCC)cc2)cc1` was tested, and the T/C (dose: 100.0 mg/kg/injection, schedule: Q01DX009 (ip), vehicle: saline with Tween-80) was 100 % of control, the T/C (dose: 200.0 mg/kg/injection, schedule: Q01DX009 (ip), vehicle: saline with Tween-80) was 87 % of control and the T/C (dose: 400.0 mg/kg/injection, schedule: Q01DX009 (ip), vehicle: saline with Tween-80) was 86 % of control.

For `Cc1ccc(CSc2ccc([N+](=O)[O-])cc2[N+](=O)[O-])cc1`, the T/C [9] was 113 % of control, the T/C [10] was 98 % of control and the T/C [11] was 92 % of control.

With `C[N+](C)(C)CCCN1c2ccccc2S(=O)c2ccc(Cl)cc21` (stereo not given) the T/C [9] was 100 % of control, the T/C [10] was 103 % of control and the T/C [11] was 103 % of control.

`c1ccc(CCN(c2ccccc2)c2ccccc2)cc1` was tested, and the T/C [9] was 100 % of control, the T/C [10] was 103 % of control and the T/C [11] was 103 % of control.

For `CN(C)C1(Cc2ccc(Cl)cc2)c2ccccc2-c2ccccc21`, the T/C (dose: 100.0 mg/kg/injection, schedule: Q01DX009 (ip), vehicle: other) was 94 % of control, the T/C (dose: 100.0 mg/kg/injection, schedule: Q04DX003 (ip), vehicle: other) was 105 % of control and the T/C (dose: 200.0 mg/kg/injection, schedule: Q01DX009 (ip), vehicle: other) was 98 % of control. The T/C (dose: 200.0 mg/kg/injection, schedule: Q04DX003 (ip), vehicle: other) was 100 % of control, the T/C (dose: 400.0 mg/kg/injection, schedule: Q01DX009 (ip), vehicle: other) was 104 % of control and the T/C (dose: 400.0 mg/kg/injection, schedule: Q04DX003 (ip), vehicle: other) was 115 % of control.

With `CC(=O)OCCN1CCN(CCCN2c3ccccc3Sc3ccc(C(F)(F)F)cc32)CC1` the T/C (dose: 9.5 mg/kg/injection, schedule: Q04DX003 (ip), vehicle: saline with Tween-80) was 114 % of control, the T/C [4] was 106 % of control and the T/C (dose: 22.0 mg/kg/injection, schedule: Q04DX003 (ip), vehicle: saline with Tween-80) was 120 % of control and 123 % of control. For the same molecule, the T/C [5] was 116 % of control, the T/C (dose: 33.0 mg/kg/injection, schedule: Q04DX003 (ip), vehicle: saline sonified) was 93 % of control and the T/C (dose: 33.3 mg/kg/injection, schedule: Q04DX003 (ip), vehicle: saline with Tween-80) was 102 % of control. The T/C (dose: 50.0 mg/kg/injection, schedule: Q04DX003 (ip), vehicle: saline with Tween-80) was 150 % of control and the T/C [6] was 106 % of control.
